For data set [1], the target named is T1, human α7 nAChR (Homo sapiens, UniProt P36544).
T1 construct: expressed in transfected cells; host or cells: GH4C1 cells derived from rat pituitary (ATCC CCL-82.2)
Put plainly: Evaluation of PAM activity with human α7 nACh receptor stably expressing cells (aequorin luminescence, FDSS7000). The class given is cell-based. The settings on record: for activity at 10 µM / α7PAM (%) @ 10 μmol/L: test compound 10 μmol/L, ACh added at EC20, ratio of RLU (Max-Min) of test wells to control wells; for activity at 10 µM: read-out: α7PAM (%) @ 10 μmol/L. The method, boiled down: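 PAM activity defined as RLU (Max-Min) of compound wells over control wells, from 465 nm aequorin luminescence tracked 138 s after ACh challenge. Host: GH4C1 (rat pituitary) stably co-expressing human α7 nAChR and aequorin, pre-loaded 4 h with 4 μmol/L luminescent substrate.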

Data set [2] concerns Slc: ddY mice. Put plainly: Novel object recognition test in mice (mORT). The class given is in vivo. As for the experimental part: Slc: ddY mice (25 g to 30 g, male, Japan SLC) can be used in the novel object recognition test wherein the interval between the 1st trial (training) and the 2nd trial (test) correlates with the memory loss for the objects used in the 1st trial, and a significant memory-loss is observed when the 2nd trial is performed 24 hours after the 1st trial. According to the test mechanism, the present compounds were administered prior to the 1st trial, and the enhancement effect on memory in the 2nd trial was evaluated.

In data set [3] the target is T2, hERG (human ether-a-go-go) potassium current (Homo sapiens, UniProt Q12809).
T2 construct: expressed in transfected cells; host or cells: CHO cells
T2 sequence (Q12809 whole entry): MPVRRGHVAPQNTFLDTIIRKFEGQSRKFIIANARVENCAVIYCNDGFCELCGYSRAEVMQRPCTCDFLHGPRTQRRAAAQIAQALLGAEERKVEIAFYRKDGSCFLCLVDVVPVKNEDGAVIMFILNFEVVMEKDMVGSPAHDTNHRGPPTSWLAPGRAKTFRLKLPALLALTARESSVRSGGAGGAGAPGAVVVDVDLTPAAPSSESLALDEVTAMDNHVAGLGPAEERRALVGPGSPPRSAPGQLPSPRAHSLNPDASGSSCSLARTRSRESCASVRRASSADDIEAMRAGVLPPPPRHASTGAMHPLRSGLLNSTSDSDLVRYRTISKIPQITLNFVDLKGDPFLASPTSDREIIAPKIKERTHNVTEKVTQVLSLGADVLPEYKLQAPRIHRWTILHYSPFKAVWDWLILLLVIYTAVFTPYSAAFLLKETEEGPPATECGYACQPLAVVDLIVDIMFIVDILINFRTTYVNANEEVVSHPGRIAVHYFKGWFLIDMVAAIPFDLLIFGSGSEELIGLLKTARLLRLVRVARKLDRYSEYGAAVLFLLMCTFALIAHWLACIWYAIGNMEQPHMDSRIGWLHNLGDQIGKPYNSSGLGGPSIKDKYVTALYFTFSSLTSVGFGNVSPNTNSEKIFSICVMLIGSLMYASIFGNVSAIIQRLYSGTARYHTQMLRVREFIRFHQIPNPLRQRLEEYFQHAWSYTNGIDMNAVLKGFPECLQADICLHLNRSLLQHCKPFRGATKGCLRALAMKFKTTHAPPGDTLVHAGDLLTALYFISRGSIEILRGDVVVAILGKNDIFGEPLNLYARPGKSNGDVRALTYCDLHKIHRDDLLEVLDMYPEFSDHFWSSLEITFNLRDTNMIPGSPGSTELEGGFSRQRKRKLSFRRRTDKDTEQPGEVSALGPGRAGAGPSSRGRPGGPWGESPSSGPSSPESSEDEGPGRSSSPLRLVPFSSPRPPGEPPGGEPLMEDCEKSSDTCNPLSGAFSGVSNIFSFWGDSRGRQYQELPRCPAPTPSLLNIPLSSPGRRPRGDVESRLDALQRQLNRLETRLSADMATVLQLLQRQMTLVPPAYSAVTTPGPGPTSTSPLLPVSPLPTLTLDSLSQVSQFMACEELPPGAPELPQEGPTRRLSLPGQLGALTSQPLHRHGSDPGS
Put plainly: hERG inhibition test (whole-cell patch clamp, QPatch HT, CHO cells). The format is cell-based. The settings on record: room temperature. As for the experimental part: The hERG (human ether-a-go-go) potassium current in CHO cells which stably express hERG gene was recorded by whole-cell patch clamping technique using an automated patch clamp system, QPatch HT (Sophion Bioscience A/S). Inducing the hERG current, the membrane potential was held at −80 mV in voltage clamp mode, and then depolarized to −50 mV for 20 msec and then +20 mV for 5 sec. Then, the membrane potential was repolarized to −50 mV for 5 sec and the tail current amplitude was measured. The stimulation was given at a frequency of every 15 seconds, and the experiment was carried out at room temperature (22±2° C.) The compound was cumulatively administered to each cell in 4 concentrations, wherein the administration was done over 5 minutes in each concentration. The inhibition percentage of the inhibited current was calculated by comparing the current intensities before and after the compound was given in each concentration. According to Hill equation, each 50% inhibitory concentration was calculated (IC50 [μmol/L]). The test solutions used herein were as follows: extracellular solution (mmol/L): 2 CaCl2, 1 MgCl2, 10 HEPES, 4 KCl, 145 NaCl, 10 glucose,
intracellular solution (mmol/L): […], 1.8 MgCl2, 10 HEPES, 31 KOH, 10 EGTA, 120 KCl, 4 ATP
A general note: hERG is a cardiac potassium channel; its block is linked to QT prolongation.

Data set [4] can be described thus: Measurement of brain penetration. The format is in vivo. Particulars: LC-MS/MS of plasma and brain homogenates; for Kp: read-out: concentration ratio of the brain to the plasma. From the text:
The plasma and brain homogenates were deproteinized with methanol and then centrifuged. The supernatant was filtered, and the obtained sample was quantified with LC-MS/MS to calculate the concentration of the plasma and brain.

Data set [5] is described as follows: Rat PK test. The class given is in vivo. Particulars: plasma, rats, intravenous and oral administration. As for the experimental part: The present compound was administered intravenously in saline solution or orally in methylcellulose solution to 7 weeks old rats, and their blood was collected according to the following schedule:
(intravenous administration) 5 minutes, 15 minutes, 30 minutes, 1 hour, 2 hours, 4 hours, 6 hours and 24 hours after the administration
(oral administration) 15 minutes, 30 minutes, 1 hour, 2 hours, 4 hours, 6 hours and 24 hours after the administration
The collected blood was centrifuged at 3000 rpm for 10 minutes in a refrigerated centrifuge set at 4° C. The obtained plasma was measured with a HPLC to give a time curve of plasma level, thereby calculating the pharmacokinetic parameters.

In general, pIC50 refers to −log10 of the IC50, conventionally taken in molar units. A higher pIC50 goes with a small IC50. For orientation: bioavailability means dose-corrected exposure relative to a reference, in per cent.

pIC50: −log10 of the molar value.

T1 sequence (P36544 23-502): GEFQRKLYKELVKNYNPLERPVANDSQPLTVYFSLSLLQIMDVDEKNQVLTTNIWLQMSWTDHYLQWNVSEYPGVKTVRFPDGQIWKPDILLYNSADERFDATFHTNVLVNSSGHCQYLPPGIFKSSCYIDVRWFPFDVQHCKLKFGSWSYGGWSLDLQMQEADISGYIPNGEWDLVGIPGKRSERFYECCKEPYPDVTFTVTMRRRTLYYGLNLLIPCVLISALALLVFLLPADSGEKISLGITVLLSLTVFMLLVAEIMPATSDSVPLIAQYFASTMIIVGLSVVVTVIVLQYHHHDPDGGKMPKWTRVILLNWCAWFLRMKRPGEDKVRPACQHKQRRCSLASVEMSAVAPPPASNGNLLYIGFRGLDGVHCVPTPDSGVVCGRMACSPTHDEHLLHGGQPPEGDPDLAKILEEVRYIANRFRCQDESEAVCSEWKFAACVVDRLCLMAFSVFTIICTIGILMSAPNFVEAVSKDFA

As for `CCc1cccc2c1cnn2C1CCN(C(=O)N[C@H]2CC[C@H](OC)CC2)CC1` [Example 66, 4-(4-ethyl-1H-indazol-1-yl)-N-(trans-4-methoxycyclohexyl)piperidine-1-carboxamide], the activity at 10 µM in data set [1] is 466%. In data set [2], the “dose at which efficacy was shown” value is 1 mg/kg.

Regarding `COc1nn(C2CCN(C(=O)NC3CCCCC3)CC2)c2ccc(C)cc12` [Example 258], in data set [1], the “α7PAM (%) @ 10 μmol/L” value is recorded as 941%. Further, the pIC50 in data set [3] was 4.33. In addition, in data set [4], the “concentration ratio of the brain to the plasma” value was 1.55.

As for `O=C(NC1CCOCC1)N1CCC(n2ncc3cc(OC(F)(F)F)ccc32)CC1` [Example 227, N-(tetrahydro-2H-pyran-4-yl)-4-[5-(trifluoromethoxy)-1H-indazol-1-yl]piperidine-1-carboxamide], the activity at 10 µM in data set [1] turned out to be 768%. The same molecule yielded a bioavailability in data set [5] of 69%. In data set [4], the Kp was determined as 1.92.

With `COc1ccc2c(c1)c(C1CCOCC1)nn2C1CCN(C(=O)N[C@H]2CC[C@H](OC)CC2)CC1` [Example 262], the “α7PAM (%) @ 10 μmol/L” value in data set [1] is recorded as 348%.

In the case of `COCc1nn(C2CCN(C(=O)NC3CCC(OC)CC3)CC2)c2ccc(C)cc12` (centres unmarked) [Example 69], in data set [1], the “α7PAM (%) @ 10 μmol/L” value is recorded as 242%.

Consider `CCc1cccc2c1cnn2C1CCN(C(=O)C2CCC(F)(F)CC2)CC1` [Example 139], for which, in data set [1], the “α7PAM (%) @ 10 μmol/L” value is recorded as 1018%.

As for `O=C(NC1CCCOC1)N1CCC(n2ncc3cc(C4CC4)ccc32)CC1` (centres unmarked) [Example 177], the “α7PAM (%) @ 10 μmol/L” value in data set [1] was 712%.

As to `COc1ccc2c(c1)c(C)nn2C1CCN(C(=O)NC2CCC(F)(F)CC2)CC1` [Example 243], the “α7PAM (%) @ 10 μmol/L” value in data set [1] is given as 842%.

With `Cc1c(OC(F)F)ccc2c1cnn2C1CCN(C(=O)NC2CCOCC2)CC1` [Example 294], in data set [1], the “α7PAM (%) @ 10 μmol/L” value is reported as 523%.

With `[2H]C([2H])([2H])O[C@H]1CC[C@H](NC(=O)N2CCC(n3ncc4cc(OC(F)(F)F)ccc43)CC2)CC1` [Example 226, N-{trans-4-[(^2H3)methoxy]cyclohexyl}-4-[5-(trifluoromethoxy)-1H-indazol-1-yl]piperidine-1-carboxamide], in data set [1], the “α7PAM (%) @ 10 μmol/L” value stood at 594%.

Consider `O=C(Nc1ccc(Cl)nn1)N1CCC(n2ncc3cc(C4CC4)ccc32)CC1` [Example 204], for which, in data set [1], the “α7PAM (%) @ 10 μmol/L” value stood at 193%.

As for `COC(C)Cc1ccc2c(cnn2C2CCN(C(=O)NC3CCC(F)(F)CC3)CC2)c1` (centres unmarked) [Example 251], the “α7PAM (%) @ 10 μmol/L” value in data set [1] came to 868%.

As for `[2H]C([2H])([2H])O[C@H]1CC[C@H](NC(=O)N2CCC(n3ncc4cc(OC(F)F)ccc43)CC2)CC1` [Example 326], in data set [1], the “α7PAM (%) @ 10 μmol/L” value is given as 1251%.

As to `CCc1ccc2c(c1)c(OC(C)C)nn2C1CCN(C(=O)NC2CCCC2)CC1` [Example 58], the “α7PAM (%) @ 10 μmol/L” value in data set [1] was found to be 577%.

On to `O=C(NC1CCC(F)(F)CC1)N1CCC(n2ncc3c(OC(F)F)cccc32)CC1` [Example 201], for which, in data set [1], the “α7PAM (%) @ 10 μmol/L” value came out at 370%.

Consider `COc1c(C)ccc2c1cnn2C1CCN(C(=O)NC2CCOCC2)CC1` [Example 268], for which the “α7PAM (%) @ 10 μmol/L” value in data set [1] was 361%.

For the molecule `CCc1ccc2c(cnn2[C@H]2CC[C@@H](NC(=O)C3CCC(F)(F)CC3)CC2)c1` [Example 4, N-(cis-4-(5-ethyl-1H-indazol-1-yl)cyclohexyl)-4,4-difluorocyclohexanecarboxamide], the “PAM activity for α7 nAChR” value in data set [1] (result in words, ratio of RLU (Max-Min) to control wells, ACh EC20) is “stronger PAM activity than others”.

In the case of `O=C(NC1CCC(F)(F)CC1)N1CCC(n2ncc3c(OC4CC4)cccc32)CC1` [Example 250], in data set [1], the “α7PAM (%) @ 10 μmol/L” value stood at 1215%.

As to `COC(C)Cc1ccc2c(cnn2C2CCN(C(=O)N[C@H]3CC[C@H](OC)CC3)CC2)c1` (some centres unmarked) [Example 247], the “α7PAM (%) @ 10 μmol/L” value in data set [1] was 353%.

As for `CO[C@H]1CC[C@H](NC(=O)N2CCC(n3ncc4cc(C(F)(F)F)ccc43)CC2)CC1` [Example 163, N-(trans-4-methoxycyclohexyl)-4-[5-(trifluoromethyl)-1H-indazol-1-yl]piperidine-1-carboxamide], the activity at 10 µM in data set [1] came out at 318%. The bioavailability in data set [5] amounted to 41%. Further, the Kp in data set [4] came to 2.01.

With `CCc1ccc2c(cnn2[C@H]2CC[C@@H](C(=O)NC3CCC(OC)CC3)CC2)c1` (some centres unmarked) [Example 130], the “α7PAM (%) @ 10 μmol/L” value in data set [1] is listed as 252%.

For the molecule `O=C(NC1CCCC1)N1CCC(n2ncc3cc(C4CC4)ccc32)CC1` [Example 171], the “α7PAM (%) @ 10 μmol/L” value in data set [1] was 1382%.

Turning to `CCCc1ccc2c(cnn2C2CCN(C(=O)C3CCOCC3)CC2)c1` [Example 108], the “α7PAM (%) @ 10 μmol/L” value in data set [1] was determined as 207%.

For `COCC1CCC(NC(=O)N2CCC(n3ncc4cc(Br)ccc43)CC2)CC1` (centres unmarked) [Example 238], the “α7PAM (%) @ 10 μmol/L” value in data set [1] was 1031%.

Consider `CC(C)Cc1ccc2c(cnn2C2CCN(C(=O)C3CCOCC3)CC2)c1` [Example 103, (4-(5-isobutyl-1H-indazol-1-yl)piperidin-1-yl)(tetrahydro-2H-pyran-4-yl)methanone], for which the activity at 10 µM in data set [1] stood at 281%.

Take `CCc1cnc2c(cnn2C2CCN(C(=O)NC3CCC(OC)CC3)CC2)c1` (centres unmarked) [Example 100]: the “α7PAM (%) @ 10 μmol/L” value in data set [1] is recorded as 198%.

Consider `O=C(C1CCC(F)(F)CC1)N1CCC(n2ncc3ccccc32)CC1` [Example 137], for which, in data set [1], the “α7PAM (%) @ 10 μmol/L” value stood at 328%.

As to `CCc1ccc2c(cnn2C2CCN(C(=O)NC3CCOCC3)CC2)c1` [Example 24], the “α7PAM (%) @ 10 μmol/L” value in data set [1] is given as 745%.

As to `O=C(NCc1ccc(C(F)(F)F)cc1)N1CCC(n2ncc3cc(C4CC4)ccc32)CC1` [Example 195], the “α7PAM (%) @ 10 μmol/L” value in data set [1] was found to be 232%.

For `COc1ccc2c(cnn2C2CCN(C(=O)NC3CCCC3(F)F)CC2)c1` (centres unmarked) [Example 87], in data set [1], the “α7PAM (%) @ 10 μmol/L” value was determined as 514%.

Take `CCOc1ccc2c(cnn2C2CCN(C(=O)C3CCC(F)(F)CC3)CC2)c1` [Example 3, (4,4-difluorocyclohexyl)(4-(5-ethoxy-1H-indazol-1-yl)piperidin-1-yl)methanone]: in data set [1], the activity at 10 µM turned out to be 512%.

For `CCc1ccc2c(cnn2[C@H]2CC[C@@H](C(=O)NC3CCCC3)CC2)c1` [Example 128], the “α7PAM (%) @ 10 μmol/L” value in data set [1] is 429%.

On to `COCC1CCC(NC(=O)N2CCC(n3ncc4cc(OC(C)C)ccc43)CC2)CC1` (centres unmarked) [Example 235], for which the “α7PAM (%) @ 10 μmol/L” value in data set [1] is 611%.

Take `[2H]C([2H])([2H])Oc1c(C2CC2)ccc2c1cnn2C1CCN(C(=O)NC2CCOCC2)CC1` [Example 323]: the “α7PAM (%) @ 10 μmol/L” value in data set [1] stood at 886%.

`CCc1nn(C2CCN(C(=O)NC3CCC(F)(F)CC3)CC2)c2ccc(C)cc12` [Example 42, N-(4,4-difluorocyclohexyl)-4-(3-ethyl-5-methyl-1H-indazol-1-yl)piperidine-1-carboxamide]: the activity at 10 µM in data set [1] was found to be 241%.

With `COc1ccc2c(cnn2C2CCN(C(=O)NC3CCCC3(F)F)CC2)c1` (centres unmarked) [Example 88], in data set [1], the “α7PAM (%) @ 10 μmol/L” value is 1063%.

`Cc1c(C2CC2)ccc2c1cnn2C1CCN(C(=O)NC2CCOCC2)CC1` [Example 283, 4-(5-cyclopropyl-4-methyl-1H-indazol-1-yl)-N-(tetrahydro-2H-pyran-4-yl)piperidine-1-carboxamide]: the activity at 10 µM in data set [1] was determined as 845%.

In the case of `O=C(NC1CCCC1)N1CCC(n2ncc3cc(Cl)ccc32)CC1` [Example 33, 4-(5-chloro-1H-indazol-1-yl)-N-cyclopentylpiperidine-1-carboxamide], the activity at 10 µM in data set [1] was found to be 430%.

`CCc1ccc2c(cnn2[C@H]2CC[C@@H](NC(=O)[C@H]3CC[C@@H](OC)CC3)CC2)c1` [Example 124]: in data set [1], the “α7PAM (%) @ 10 μmol/L” value was 1230%.

With `Cc1ccc2c(cnn2C2CCN(C(=O)NC3CCC(OCC(F)(F)F)CC3)CC2)c1` (centres unmarked) [Example 83], the “α7PAM (%) @ 10 μmol/L” value in data set [1] was determined as 420%.
